The values that follow come from ChEMBL document CHEMBL1142840, “4-Phenylcoumarins as HIV transcription inhibitors” (Bioorg Med Chem Lett, 2005).

Bounds are passed on as bounds.

The IC50 is the point on the concentration scale where inhibition reaches its midpoint. Broadly, the inhibition is the share of the control response that was lost under treatment. A higher inhibition goes with strong suppression. As a reminder, the Inhibition is the change of the read-out against control, counted positive when it falls.

Experiment [1] relates to MT2. As to the kind of experiment: Toxicity of compound against human MT-2 cell line at the concentration of 50 uM. Type of experiment: functional.
For experiment [2], the target named is Human immunodeficiency virus type 1 reverse transcriptase (Human immunodeficiency virus 1, UniProt Q72547). Briefly: Inhibitory concentration against recombinant human immunodeficiency virus 1 reverse transcriptase.
Experiment [3] in a line: Anti-HIV activity (at 25 uM) against Jurkat-derived 5.1 cell line stably transfected with HIV-LTR activated by TNF alpha. It counts as functional.
A short description of experiment [4]: Anti-HIV activity (at 50 uM) against Jurkat-derived 5.1 cell line stably transfected with HIV-LTR activated by TNF alpha. Type of experiment: functional.
For experiment [5], the system named is HeLa. As to the kind of experiment: Anti-HIV activity (at 25 uM) against human HeLa-Tat-Luc cells transfected with HIV-1 LTR activated by Tat protein. It counts as functional.
The test system of experiment [6] is HeLa. Briefly: Anti-HIV activity (at 50 uM) against human HeLa-Tat-Luc cells transfected with HIV-1 LTR activated by Tat protein. It counts as functional.
The test system of experiment [7] is HeLa. As to the kind of experiment: Anti-HIV activity (at 50 uM) against human HeLa cells through a HeLa-Tet-ON assay; U= unspecific. It counts as functional, cell-based.
Experiment [8] has as its system HeLa. Briefly: Anti-HIV activity (at 50 uM) against human HeLa cells through a HeLa-Tet-ON assay; S= specific. It counts as functional, cell-based.
For experiment [9], the system named is HeLa. As to the kind of experiment: Anti-HIV activity (at 50 uM) against human HeLa cells through a HeLa-Tet-ON assay; U= specific. It counts as functional, cell-based.

`CC1CN(C2CC(N=[N+]=[N-])[C@@H](CO)C2)C(=O)NC1=O` (stereo partly drawn) registered a Cell death in experiment [1] of over 100%. Also, in experiment [2], the IC50 came out at 0.01 µM.
For `CC(C)C(=O)c1c2c(c3oc(=O)cc(-c4ccccc4)c3c1O)C=CC(C)(C)O2` [MESUAGIN], the values for the inhibition at 25 µM in experiment [3] and in [5] were 10.8% and 0%, respectively. Moreover, the values for the inhibition at 50 µM in [4] and in experiment [6] were 20.2% and 0%, respectively. This compound came in with a Cell death in experiment [1] of 4.5%. In experiment [2], the IC50 is 32.1 µM.
For the compound `COc1c(C(=O)CC(C)C)c(O)c(CC=C(C)C)c2oc(=O)cc(-c3ccccc3)c12`, the inhibition at 50 µM worked out at 43.6% in experiment [4] and 13.5% in experiment [6]. Also, in experiment [1], the Cell death is 4.8%. The IC50 in [2] was 22.2 µM.
With `CC(C)=CCc1c(O)c(C(=O)CC(C)C)c(O)c2c(-c3ccccc3)cc(=O)oc12` [MAMMEISIN], the inhibition at 50 µM in experiment [4] amounted to 58.8%; in experiment [6] it was 53.1%. This compound also displayed a Cell death in experiment [1] of 16.6%. For the same compound, the inhibition entry in experiment [7] is on record as “Unspecific”.
On to `CC(C)=CCc1c(O)c(C(=O)C(C)C)c2oc(=O)cc(-c3ccccc3)c2c1O` [ISOMESUOL], for which the inhibition result in [8] is “Specific”. In addition, the inhibition at 25 µM was 67% in [3] and 36.7% in experiment [5]. The inhibition at 50 µM stood at 67.1% in [4] and 34.3% in [6]. For the same compound, in experiment [1], the Cell death was determined as 11.5%. Besides, the IC50 in experiment [2] was 31.9 µM.
On to `CC(C)=CCc1c(O)cc(O)c2c(-c3ccccc3)cc(=O)oc12`, for which, in experiment [3], the inhibition at 25 µM worked out at 33.4%. Also, the inhibition at 50 µM in experiment [4] was determined as 84.5%; in [6], 15.4%. Besides, the Cell death in experiment [1] worked out at 34.4%. The IC50 in experiment [2] came out at 11.2 µM.
For the compound `CC(C)=CCc1c(O)c(C(O)CC(C)C)c(O)c2c(-c3ccccc3)cc(=O)oc12` (stereo not drawn), the inhibition at 50 µM in experiment [4] amounted to 60%; in [6], 47.6%. The compound further returned a Cell death in [1] of 8%. Further, the inhibition result in experiment [7] is on record as “Unspecific”.
Taken in the same sequence, the figures for `CCC(C)C(=O)c1c(O)c(CC=C(C)C)c2oc(=O)cc(-c3ccccc3)c2c1O` (stereo not drawn) were 85.2%, 86.7%, 28.8% and “Unspecific”.
Taken in the same sequence, the figures for `CC(C)C(=O)c1c2c(c3oc(=O)cc(-c4ccccc4)c3c1O)C[C@@H](C(C)(C)O)O2` [MESUOL CYCLO F] were 59.4%, 59.5%, 79.5% and “Unspecific”.
For `CC(C)CC(=O)c1c2c(c3oc(=O)cc(-c4ccccc4)c3c1O)C[C@@H](C(C)(C)O)O2` [CYCLOMAMMEISIN], the inhibition at 25 µM in [3] was found to be 66.9%. Further, the inhibition at 50 µM in [4] was found to be 86.3%; in [6] it was 22%. Moreover, the Cell death in experiment [1] is on record as 34.1%. Further, the inhibition entry in experiment [7] is reported as “Unspecific”.
`CC(C)CC(=O)c1c(O)cc(O)c2c(-c3ccccc3)cc(=O)oc12` [ISODISPAR B]: the inhibition result in experiment [8] is “Specific”. In addition, the results for the inhibition at 25 µM in [3] and in [5] were 81% and 42%, respectively. Besides, the inhibition at 50 µM was found to be 85.6% in experiment [4] and 69.4% in [6]. The compound further yielded a Cell death in [1] of 17.2%. In addition, the IC50 in experiment [2] stood at 6.9 µM.
In experiment [3], `CC(C)=CCc1c(O)c(C(=O)C(C)C)c(O)c2c(-c3ccccc3)cc(=O)oc12` [MESUOL] registered an Inhibition of 71%. Moreover, the results for the inhibition at 25 µM in [3] and in experiment [5] were 67.1% and 11.5%, respectively. Also, the inhibition at 50 µM in experiment [4] came to 77.9%; in experiment [6], 71.3%. Also, the Cell death in [1] was 22.5%. Moreover, the inhibition result in [9] is “Specific”; in [7] it was “Unspecific”. Also, the 50% inhibitory concentration (IC50) in [2] was 2.5 µM.
As for `CC(=O)Oc1c(C(=O)CC(C)C)c(OC(C)=O)c2c(-c3ccccc3)cc(=O)oc2c1CC=C(C)C` [MAMMEISIN DIACETATE], the inhibition at 50 µM in experiment [4] worked out at 81.1%; in experiment [6], 50.4%. In addition, the Cell death in experiment [1] stood at 15.7%. In addition, in experiment [7], the inhibition result was “Unspecific”.
With `CC(C)CC(=O)c1c2c(c3oc(=O)cc(-c4ccccc4)c3c1O)C=CC(C)(C)O2` [MAMMEIGIN], the inhibition at 25 µM was 5.9% in experiment [3] and 2% in [5]. For the same compound, the inhibition at 50 µM in [4] was 15.7%; in [6] it was 3%. The compound further returned a Cell death in experiment [1] of 4.7%. The IC50 in [2] came out at 124 µM.
With `CC(C)=C(O)Cc1c(O)c(C(=O)CC(C)C)c(O)c2c(-c3ccccc3)cc(=O)oc12`, in experiment [8], the inhibition result was “Specific”. The results for the inhibition at 25 µM in experiment [3] and in experiment [5] were 55.4% and 43.6%, respectively. For the same compound, the inhibition at 50 µM in [4] is 53.1%; in experiment [6] it was 70.4%. Moreover, the Cell death in experiment [1] worked out at 18.5%. Also, in [2], the IC50 was determined as 0.5 µM.
